Results as given in publication PMC4303209, “A novel phosphatidylinositol 3-kinase (PI3K) inhibitor directs a potent FOXO-dependent, p53-independent cell cycle arrest phenotype characterized by the differential induction of a subset of FOXO-regulated genes” (Breast Cancer Research : BCR, 2014).

Columns and labels:
PI3K = assay: Kinase assay of PI3Kα, PI3Kβ, PI3Kδ, PI3Kγ and mutant PI3Kα (H1047R and E542K), PI3-kinase HTRF assay; format: biochemical; details: Figure S1C
Protocol: (§1) The kinase activity of PI3Kα, PI3Kβ, PI3Kδ and PI3Kγ, mutant PI3Kα (H1047R and E542K) mammalian target of rapamycin (mTOR) and DNA-PK was measured as described previously. The protein kinase assays depicted in Figure S1 in Additional file 1 and Table S2 in Additional file 2 were performed at ProQinase, GmbH [18].
(§2) Supplementary file 13058_2014_482_MOESM1_ESM.jpeg: Additional file 1: Figure S1.: Comparative analysis of ETP-45658 and PI-103. (A) Chemical structure of ETP-45658 and PI-103. (B) Physiochemical properties of ETP-45658 and PI-103, including molecular polar surface area (PSA), partition coefficient (LogP), ACD clogD and solubility at two different pH values including Lipinsky’s Rule of Five (RoF) analysis. (C) Inhibitory activity against PI3K and mTOR. The kinase activity of PI3K was measured by using the commercial PI3-kinase HTRF™ assay mTOR activity by LanthaScreen™. (D) ETP-45658 and PI-103 screen against a panel of 24 kinases. The value shown indicates kinase inhibition (percentage +/− standard deviation) at 10 μM. (E) Migration of MDA-MB231 cells in a two compartment Boyden chamber for 72 hours in the presence of DMSO, ETP-45658 or PI-103 (N = 3). (JPEG 662 KB)

mTOR = mTOR (Homo sapiens, UniProt P42345); assay: mTOR kinase assay (LanthaScreen); format: biochemical; details: for inhibitory activity against mTOR: Figure S1C
Protocol: as §1, §2

[1] = molecular target: panel of 24 representative kinases; assay: Protein kinase panel screen (ProQinase); format: biochemical, human; details: 10 μM
Protocol: (§3) The protein kinase assays depicted in Figure S1 in Additional file 1 and Table S2 in Additional file 2 were performed at ProQinase, GmbH [18].
(§4) Our first objective was to analyse the biological activity of ETP-45658 including the physical and chemical properties of this compound compared to the reference pan-class I PI3K and mTOR inhibitor PI-103 [9]. We characterised the structure of each compound (Figure S1A in Additional file 1) and conducted the in silico analysis of each compound to measure their physiochemical properties (Figure S1B in Additional file 1). We determined the molecular polar surface area (PSA) of each compound, the partition coefficient, the distribution coefficient, compound solubility and the number of hydrogen donors and acceptors. […] Each indicated protein kinase activity was assayed following 10 μM treatment with either compound.
(§5) Supplementary file 13058_2014_482_MOESM1_ESM.jpeg: Additional file 1: Figure S1.: Comparative analysis of ETP-45658 and PI-103. (A) Chemical structure of ETP-45658 and PI-103. (B) Physiochemical properties of ETP-45658 and PI-103, including molecular polar surface area (PSA), partition coefficient (LogP), ACD clogD and solubility at two different pH values including Lipinsky’s Rule of Five (RoF) analysis. […] The kinase activity of PI3K was measured by using the commercial PI3-kinase HTRF™ assay mTOR activity by LanthaScreen™. […]

mutated BRAF = assay: Protein kinase panel screen (ProQinase), mutated BRAF; format: biochemical; details: 10 μM
Protocol: as §3, §4, §5

[2] = system: phosphorylated serine 473 AKT; assay: Immunoblot of AKT Ser473 phosphorylation in MCF-7 or U2OS cells; format: cell-based, human
Protocol: Figure 1 Cellular response to ETP-45658. […] Seventy-two hours post treatment, MTT assays were conducted. (B) Dose- and time-dependent analysis of Ser473 phosphorylation of AKT phosphorylation by 100nM ETP-45658 or PI-103 treatment. MCF-7 or U2OS cells were treated with the indicated concentrations (μM) of ETP-45658 (or PI-103) for four hours, then total protein was extracted and immunoblotted. For nuclear FOXO analysis, nuclear protein fractions were collected four hours post ETP-45658 (or PI-103) treatment. Nuclear FOXO3a levels were measure by immunoblotting. Nuclear fractions were confirmed by probing for lamin A/C. (C) FACS profile of MCF-7 or U2OS following 100 nM ETP-45658 treatment (20,000 events scored, N = 5). (D) Heat map for the top 100 differentially expressed genes based on hierarchical clustering using Euclidean distance metric. Red and green indicate genes that induced or repressed respectively by ETP-45658 or PI-103. Black indicates no change (N = 4). […] Numbers indicate number of genes that are exclusive to that particular category.

MDA-MB231 cells = assay: Boyden chamber matrigel invasion assay; format: cell-based, human; details: 72 hours; for capacity of MDA-MB231 cells to migrate through the matrigel: Figure S1E; for cell viability in invasion assay: MDA-MB231
Protocol: Cell-invasive capacity was determined using two-compartment Boyden chamber matrigel invasion assay (BD BioCoat™ Matrigel™ Invasion Chambers, BD Biosciences 354480, BD Biosciences, San Jose, CA, USA). MDA-MB231 cells were allowed to invade for 72 hours at 37°C. All of the inserts and the liquid in each well of the companion plate were removed. 10% serum RPMI medium with 5 μM calcein was added to each and incubated for 1 hour (in darkness). Fluorescence was measured with a luminometer (Envision, PerkinElmer, Inc, Waltham, MA, USA) at 485/535 nm and the results were analyzed in Activity Base (IDBS, Guildford, UK).
as §2

[3] = system: known toxicity pathways and canonical stress pathways; assay: Ingenuity Pathway Tox Analysis of genome-wide array data; format: cell-based, human; details: vs DMSO; MCF-7 array data
Source text: While our results highlight that the primary cellular response is an anti-proliferative response (as opposed to an apoptotic response), for the development of ETP-45658 as a potential therapeutic, we questioned if ETP-45658 exposure was associated with any degree of toxicity, one of the most fundamental questions for any proposed therapeutic. We conducted a genome-wide analysis utilising an Ingenuity Pathway Analysis algorithm to address if any known toxicity pathway(s) were activated or induced after treatment with ETP-45658 (or by the reference compound PI-103). This included an extensive evaluation of the cardiac necrosis stress cascade, genes implicated in kidney failure, liver necrosis and liver hematomegaly. Furthermore, we also questioned if, on a genome-wide scale, any know canonical stress pathways were activated by ETP-45658 (or PI-103) treatment. This included the p53 pathway, PTEN aldosterone, ErbB2-ErbB3 and the ERK-MAPK signalling cascades.
Figure 2 Focused toxicity and safety assessment of ETP-45658.

[4] = MCF-7 and U2OS, as early as 30 minutes post treatment
[5] = osteosarcoma cells (U2OS), by three hours post treatment

SMILES	inhibitory activity against PI3K (PI3K)	inhibitory activity against mTOR (mTOR)	potency against mTOR relative to PI-103 (mTOR; compared to reference compound PI-103)	kinases significantly inhibited in panel of 24 kinases [1]	average percent inhibition (mutated BRAF) [%]	phosphorylated serine 473 AKT [2, 4]	phosphorylated serine 473 AKT [2, 5]	capacity of MDA-MB231 cells to migrate through the matrigel (MDA-MB231 cells)	cell viability in invasion assay (MDA-MB231 cells)	induction of known toxicity pathways (Ingenuity Pathway Tox Analysis) [3]
Cn1ncc2c(N3CCOCC3)nc(-c3cccc(O)c3)nc21 [ETP-45658]	potently inhibited	inhibited	almost three times more potent	only mutated BRAF was significantly inhibited	38	significant decrease	unable to detect	inhibited	without significantly affecting cell viability	Neither ETP-45658 (nor PI-103) treatment significantly induced any known toxicity pathways
Oc1cccc(-c2nc(N3CCOCC3)c3oc4ncccc4c3n2)c1 [PI-103]	slightly more effective	significantly less potent		only mutated BRAF was significantly inhibited	57.7	significant decrease	unable to detect	inhibited	without significantly affecting cell viability	Neither ETP-45658 (nor PI-103) treatment significantly induced any known toxicity pathways
